One experiment addresses SOS1 (Homo sapiens (Human), UniProt Q07889). The experiment in a line: Ras-SOS interaction assay (HTRF). The experiment is classed as biochemical.
For experiment [1], the system named is MIA PaCa-2 cells (K-Ras G12C). The experiment in a line: Ras-SOS cellular growth inhibition assay (CellTiter-Glo, 3D). The experiment is classed as cell-based. As to conditions: Homo sapiens. In a few lines:
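MIA PaCa-2 cells grown in ultra-low-attachment plates (3D) in DMEM/Ham's F12 with 10% FCS and 2.5% horse serum, treated the day after seeding with a 9-point 3-fold compound series for about 5 days. Viability by CellTiter-Glo luminescence; IC50 from four-parameter fit.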
In general terms: Cellular ATP, detected with luciferase, serves as a proxy for viable cell number.

The subject of experiment [2] is NCI-H1975 cells (EGFR T790M L858R). Nature of the experiment: EGFR-SOS cellular inhibition assay (CellTiter-Glo, 3D). As to conditions: Homo sapiens. Format: cell-based.
[3] abbreviates: K-RasG13D utilized, read-out: IC50 inhibition of SOS.
Where [4] appears, read: K-RasG13D, read-out: IC50 value against SOS1.
[5] abbreviates: MIA PaCa-2, 120 h, MIA PaCa-2, 3D proliferation, about 5 days, read-out: Bio-Cell-Prolif-3D (MiaPaca2 IC50).
Setting [6] is: 120 h, NCI-H1975, 3D proliferation, about 5 days, read-out: Bio-Cell-Prolif-3D (H1975 IC50).
Where [7] appears, read: MIA PaCa-2, MIA PaCa-2, read-out: IC50 in inhibiting MIA PaCa-2 cell growth.
[8] abbreviates: NCI-H1975, EGFR T790M L858R, read-out: IC50 in inhibiting growth of NCI-H1975 cell line.

Results on 16 compounds are retold here after patent US11648254B2 (Kumquat Biosciences Inc., priority 2021, dated 2023).

Like-named read-outs stand apart in the source and are kept apart here. Bounds are passed on as bounds.

What is called IC50 is the concentration that inhibits the measured activity by half.

Chain of SOS1 (Q07889 564-1049): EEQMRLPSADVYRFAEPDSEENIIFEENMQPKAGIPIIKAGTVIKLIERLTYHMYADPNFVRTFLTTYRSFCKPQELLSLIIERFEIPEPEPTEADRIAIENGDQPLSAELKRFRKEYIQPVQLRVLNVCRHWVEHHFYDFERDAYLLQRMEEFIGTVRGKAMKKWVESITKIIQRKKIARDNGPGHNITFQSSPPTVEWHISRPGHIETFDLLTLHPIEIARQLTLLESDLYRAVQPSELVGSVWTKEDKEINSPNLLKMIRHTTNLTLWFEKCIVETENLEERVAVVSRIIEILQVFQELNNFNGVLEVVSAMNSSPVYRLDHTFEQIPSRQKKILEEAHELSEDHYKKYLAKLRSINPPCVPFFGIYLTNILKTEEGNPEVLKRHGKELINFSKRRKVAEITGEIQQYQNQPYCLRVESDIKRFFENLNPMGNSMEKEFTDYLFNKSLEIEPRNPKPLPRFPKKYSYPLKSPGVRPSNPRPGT

With `C[C@@H](Nc1ncnc2nc(OC3COC3)c(C3CCS(=O)(=O)CC3)cc12)c1cccc(C(F)F)c1F` [Compound 227, (R)-4-(4-((1-(3-(difluoromethyl)-2-fluorophenyl)ethyl)amino)-7-(oxetan-3-yloxy)pyrido[2,3-d]pyrimidin-6-yl)tetrahydro-2H-thiopyran 1,1-dioxide], the IC50 was less than 100 nM at SOS1 (setting [3]), less than 50 nM at SOS1 (setting [4]), not above 1000 nM in experiment [1] (setting [5]) and not above 1000 nM in experiment [2] (setting [6]).
As to `Cc1nc(N[C@H](C)c2cccc(C(F)F)c2F)c2cc(C3CCS(=O)(=O)CC3)c(OC3COC3)nc2n1` [Compound 229, (R)-4-(4-((1-(3-(difluoromethyl)-2-fluorophenyl)ethyl)amino)-2-methyl-7-(oxetan-3-yloxy)pyrido[2,3-d]pyrimidin-6-yl)tetrahydro-2H-thiopyran 1,1-dioxide], the IC50 at SOS1 (setting [3]) is less than 100 nM; on SOS1 (setting [4]), less than 50 nM; in experiment [1] (setting [5]), not above 1000 nM; in experiment [2] (setting [6]) it was not above 1000 nM.
Turning to `C[C@@H](Nc1ncnc2nc(OC3COC3)c(N3CCS(=O)(=O)CC3)cc12)c1cccc(C(F)F)c1F` [Compound 231, (R)-4-(4-((1-(3-(difluoromethyl)-2-fluorophenyl)ethyl)amino)-7-(oxetan-3-yloxy)pyrido[2,3-d]pyrimidin-6-yl)thiomorpholine 1,1-dioxide], the IC50 was less than 100 nM at SOS1 (setting [3]), less than 50 nM on SOS1 (setting [4]), not above 1000 nM in experiment [1] (setting [5]) and 1000 to 10000 nM in experiment [2] (setting [6]).
For the compound `Cc1nc(N[C@H](C)c2cccc(C(F)F)c2F)c2cc(C3(C#N)CC3)c(OC3CCN(C)CC3)nc2n1` [Compound 232, (R)-1-(4-((1-(3-(difluoromethyl)-2-fluorophenyl)ethyl)amino)-2-methyl-7-((1-methylpiperidin-4-yl)oxy)pyrido [2,3-d]pyrimidin-6-yl)cyclopropane-1-carbonitrile], the half-inhibitory concentration (IC50) is less than 100 nM on SOS1 (setting [3]); less than 50 nM at SOS1 (setting [4]); not above 1000 nM in experiment [1] (setting [5]); less than 500 nM in experiment [1] (setting [7]); not above 1000 nM in experiment [2] (setting [6]); less than 500 nM in experiment [2] (setting [8]).
For the compound `Cc1nc(N[C@H](C)c2cccc(C(F)F)c2F)c2cc(C3(C#N)CC3)c(O[C@H]3CCN(C)C3)nc2n1` [Compound 233, 1-(4-(((R)-1-(3-(difluoromethyl)-2-fluorophenyl)ethyl)amino)-2-methyl-7-(((S)-1-methylpyrrolidin-3-yl)oxy)pyrido [2,3-d]pyrimidin-6-yl)cyclopropane-1-carbonitrile], the IC50 on SOS1 (setting [3]) is less than 100 nM; on SOS1 (setting [4]), less than 50 nM; in experiment [1] (setting [5]), not above 1000 nM; in experiment [1] (setting [7]), less than 500 nM; in experiment [2] (setting [6]), not above 1000 nM; in experiment [2] (setting [8]), less than 500 nM.
With `Cc1nc(N[C@H](C)c2cccc(C(F)F)c2F)c2cc(C3(C#N)CC3)c(OC[C@H]3CCCN3C)nc2n1` [Compound 235, 1-(4-(((R)-1-(3-(difluoromethyl)-2-fluorophenyl)ethyl)amino)-2-methyl-7-(((R)-1-methylpyrrolidin-2-yl)methoxy)pyrido [2,3-d]pyrimidin-6-yl)cyclopropane-1-carbonitrile], the IC50 on SOS1 (setting [3]) is less than 100 nM; at SOS1 (setting [4]), less than 50 nM; in experiment [1] (setting [5]) it was not above 1000 nM; in experiment [2] (setting [6]), not above 1000 nM; in experiment [2] (setting [8]), less than 500 nM.
For `COc1nc2nc(C)nc(N[C@H](C)c3cccc(C(F)(F)CCC4CN(C(C)C)C4)c3F)c2cc1C1CCS(=O)(=O)CC1` [Compound 238, (R)-4-(4-((1-(3-(1,1-difluoro-3-(1-isopropylazetidin-3-yl)propyl)-2-fluorophenyl)ethyl)amino)-7-methoxy-2-methylpyrido[2,3-d]pyrimidin-6-yl)tetrahydro-2H-thiopyran 1,1-dioxide], the IC50 at SOS1 (setting [3]) was less than 100 nM; at SOS1 (setting [4]), less than 50 nM; in experiment [1] (setting [5]), not above 1000 nM; in experiment [1] (setting [7]), less than 500 nM; in experiment [2] (setting [6]) it was not above 1000 nM; in experiment [2] (setting [8]), less than 500 nM.
For the compound `COc1nc2nc(C)nc(N[C@H](C)c3cccc(C(F)(F)CO)c3)c2cc1C1CCS(=O)(=O)CC1` [Compound 239, (R)-4-(4-((1-(3-(1,1-difluoro-2-hydroxyethyl)phenyl)ethyl)amino)-7-methoxy-2-methylpyrido[2,3-d]pyrimidin-6-yl)tetrahydro-2H-thiopyran 1,1-dioxide], the IC50 is less than 100 nM at SOS1 (setting [3]); less than 50 nM at SOS1 (setting [4]); not above 1000 nM in experiment [1] (setting [5]); less than 500 nM in experiment [1] (setting [7]); not above 1000 nM in experiment [2] (setting [6]); less than 500 nM in experiment [2] (setting [8]).
With `COc1nc2nc(OC3CN(C(C)C)C3)nc(N[C@H](C)c3cccc(C(F)F)c3F)c2cc1C1(C#N)CC1` [Compound 240, (R)-1-(4-((1-(3-(difluoromethyl)-2-fluorophenyl)ethyl)amino)-2-((1-isopropylazetidin-3-yl)oxy)-7-methoxypyrido[2,3-d]pyrimidin-6-yl)cyclopropane-1-carbonitrile], the IC50 at SOS1 (setting [3]) is 100 to 1000 nM; in experiment [1] (setting [5]) it was not above 1000 nM; in experiment [1] (setting [7]) it was less than 500 nM; in experiment [2] (setting [6]), not above 1000 nM; in experiment [2] (setting [8]), less than 500 nM.
Turning to `COc1nc2nc(C)nc(N[C@H](C)c3cccc(C(F)(F)C(C)(C)OC4CN(C(C)C)C4)c3F)c2cc1N1CCN(C(C)C)CC1` [Compound 242, (R)-N-(1-(3-(1,1-difluoro-2-((1-isopropylazetidin-3-yl)oxy)-2-methylpropyl)-2-fluorophenyl)ethyl)-6-(4-isopropylpiperazin-1-yl)-7-methoxy-2-methylpyrido[2,3-d]pyrimidin-4-amine], the IC50 at SOS1 (setting [3]) is less than 100 nM; at SOS1 (setting [4]), less than 50 nM; in experiment [1] (setting [5]) it was not above 1000 nM; in experiment [1] (setting [7]), less than 500 nM; in experiment [2] (setting [6]), not above 1000 nM; in experiment [2] (setting [8]), less than 500 nM.
As for `COc1nc2nc(C)nc(N[C@H](C)c3cccc(C(F)(F)C(C)(C)OC4CNC4)c3F)c2cc1N1CCN(C(C)C)CC1` [Compound 243, (R)-N-(1-(3-(2-(azetidin-3-yloxy)-1,1-difluoro-2-methylpropyl)-2-fluorophenyl)ethyl)-6-(4-isopropylpiperazin-1-yl)-7-methoxy-2-methylpyrido[2,3-d]pyrimidin-4-amine], the IC50 at SOS1 (setting [3]) was less than 100 nM; at SOS1 (setting [4]), less than 50 nM; in experiment [1] (setting [5]), not above 1000 nM; in experiment [1] (setting [7]), less than 500 nM; in experiment [2] (setting [6]), not above 1000 nM; in experiment [2] (setting [8]), less than 500 nM.
Take `Cc1nc(N[C@H](C)c2cccc(C(F)(F)C(C)(C)O)c2F)c2cc(C3(C#N)CC3)c(N3CCN(C(C)C)CC3)nc2n1` [Compound 244, (R)-1-(4-((1-(3-(1,1-difluoro-2-hydroxy-2-methylpropyl)-2-fluorophenyl)ethyl)amino)-7-(4-isopropylpiperazin-1-yl)-2-methylpyrido[2,3-d]pyrimidin-6-yl)cyclopropane-1-carbonitrile]: the IC50 at SOS1 (setting [3]) is less than 100 nM; on SOS1 (setting [4]) it was less than 50 nM; in experiment [1] (setting [5]), not above 1000 nM; in experiment [1] (setting [7]), less than 500 nM; in experiment [2] (setting [6]), not above 1000 nM; in experiment [2] (setting [8]), less than 500 nM.
Regarding `Cc1nc(N[C@H](C)c2cccc(C(F)(F)C(C)(C)O)c2F)c2cc(C3(C#N)CC3)c(OC3COC3)nc2n1` [Compound 245, (R)-1-(4-((1-(3-(1,1-difluoro-2-hydroxy-2-methylpropyl)-2-fluorophenyl)ethyl)amino)-2-methyl-7-(oxetan-3-yloxy)pyrido[2,3-d]pyrimidin-6-yl)cyclopropane-1-carbonitrile], the half-maximal inhibitory concentration (IC50) was less than 100 nM at SOS1 (setting [3]), less than 50 nM at SOS1 (setting [4]), 1000 to 10000 nM in experiment [1] (setting [5]) and 1000 to 10000 nM in experiment [2] (setting [6]).
For `Cc1nc(N[C@H](C)c2cccc(C(F)(F)F)c2F)c2cc(C3CCS(=O)(=O)CC3)c(OC3COC3)nc2n1` [Compound 247, (R)-4-(4-((1-(2-fluoro-3-(trifluoromethyl)phenyl)ethyl)amino)-2-methyl-7-(oxetan-3-yloxy)pyrido[2,3-d]pyrimidin-6-yl)tetrahydro-2H-thiopyran 1,1-dioxide], the IC50 on SOS1 (setting [3]) is less than 100 nM; on SOS1 (setting [4]), less than 50 nM; in experiment [1] (setting [5]) it was not above 1000 nM; in experiment [1] (setting [7]) it was less than 500 nM; in experiment [2] (setting [6]), not above 1000 nM; in experiment [2] (setting [8]), less than 500 nM.
As for `Cc1nc(N[C@H](C)c2cccc(C(F)(F)F)c2F)c2cc(C3CCS(=O)(=O)CC3)c(OC3CN(C)C3)nc2n1` [Compound 248, (R)-4-(4-((1-(2-fluoro-3-(trifluoromethyl)phenyl)ethyl)amino)-2-methyl-7-((1-methylazetidin-3-yl)oxy)pyrido[2,3-d]pyrimidin-6-yl)tetrahydro-2H-thiopyran 1,1-dioxide], the concentration for half-maximal inhibition (IC50) on SOS1 (setting [3]) was less than 100 nM; on SOS1 (setting [4]), less than 50 nM; in experiment [1] (setting [5]), not above 1000 nM; in experiment [1] (setting [7]) it was less than 500 nM; in experiment [2] (setting [6]), not above 1000 nM; in experiment [2] (setting [8]), less than 500 nM.
On to `Cc1nc(N[C@H](C)c2cccc(C(F)(F)F)c2C)c2cc(C3CCS(=O)(=O)CC3)c(OC3COC3)nc2n1` [Compound 249, (R)-4-(2-methyl-4-((1-(2-methyl-3-(trifluoromethyl)phenyl)ethyl)amino)-7-(oxetan-3-yloxy)pyrido[2,3-d]pyrimidin-6-yl)tetrahydro-2H-thiopyran 1,1-dioxide], for which the IC50 at SOS1 (setting [3]) was less than 100 nM; on SOS1 (setting [4]), less than 50 nM; in experiment [1] (setting [5]), 1000 to 10000 nM; in experiment [2] (setting [6]) it was not above 1000 nM; in experiment [2] (setting [8]) it was less than 500 nM.
